Biological target: Integrin alpha-L/beta-2 (Homo sapiens, UniProt P05107+P20701)
Assay: Inhibitory concentration against leukocyte function-associated antigen-1 in HSB-2 human lymphoblast and H1HeLa cell adhesion assay

Sequence of Integrin alpha-L/beta-2 (P20701 whole entry): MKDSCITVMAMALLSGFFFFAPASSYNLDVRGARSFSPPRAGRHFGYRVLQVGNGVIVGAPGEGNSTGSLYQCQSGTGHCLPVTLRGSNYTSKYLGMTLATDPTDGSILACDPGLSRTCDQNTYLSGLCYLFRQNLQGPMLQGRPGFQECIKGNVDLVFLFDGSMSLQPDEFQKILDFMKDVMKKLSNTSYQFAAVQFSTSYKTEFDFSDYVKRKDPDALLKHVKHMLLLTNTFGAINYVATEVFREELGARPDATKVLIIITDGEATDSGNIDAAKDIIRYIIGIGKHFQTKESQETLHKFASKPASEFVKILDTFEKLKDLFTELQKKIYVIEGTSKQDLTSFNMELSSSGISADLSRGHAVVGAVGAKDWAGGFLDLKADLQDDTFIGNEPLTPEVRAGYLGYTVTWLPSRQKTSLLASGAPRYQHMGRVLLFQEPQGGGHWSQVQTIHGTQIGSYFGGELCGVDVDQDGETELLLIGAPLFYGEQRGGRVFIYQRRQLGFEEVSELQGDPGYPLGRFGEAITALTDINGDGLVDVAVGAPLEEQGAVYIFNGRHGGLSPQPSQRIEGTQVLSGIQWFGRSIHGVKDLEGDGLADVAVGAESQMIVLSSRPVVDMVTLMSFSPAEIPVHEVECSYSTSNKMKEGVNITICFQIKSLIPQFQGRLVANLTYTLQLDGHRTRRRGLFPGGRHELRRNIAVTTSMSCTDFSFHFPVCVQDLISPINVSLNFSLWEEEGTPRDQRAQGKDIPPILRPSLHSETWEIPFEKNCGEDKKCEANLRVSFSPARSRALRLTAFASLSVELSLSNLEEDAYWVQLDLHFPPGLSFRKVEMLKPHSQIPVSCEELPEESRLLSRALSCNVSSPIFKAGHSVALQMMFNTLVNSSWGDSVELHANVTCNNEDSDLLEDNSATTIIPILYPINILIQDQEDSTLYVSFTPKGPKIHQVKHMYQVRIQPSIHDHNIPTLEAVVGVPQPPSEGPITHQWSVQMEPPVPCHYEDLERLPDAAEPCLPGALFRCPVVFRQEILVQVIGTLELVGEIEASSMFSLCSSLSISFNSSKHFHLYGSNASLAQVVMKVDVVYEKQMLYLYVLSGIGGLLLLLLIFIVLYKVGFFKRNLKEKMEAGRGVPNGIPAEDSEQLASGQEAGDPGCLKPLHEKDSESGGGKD
Sequence of Integrin alpha-L/beta-2 (P05107 whole entry H354Q): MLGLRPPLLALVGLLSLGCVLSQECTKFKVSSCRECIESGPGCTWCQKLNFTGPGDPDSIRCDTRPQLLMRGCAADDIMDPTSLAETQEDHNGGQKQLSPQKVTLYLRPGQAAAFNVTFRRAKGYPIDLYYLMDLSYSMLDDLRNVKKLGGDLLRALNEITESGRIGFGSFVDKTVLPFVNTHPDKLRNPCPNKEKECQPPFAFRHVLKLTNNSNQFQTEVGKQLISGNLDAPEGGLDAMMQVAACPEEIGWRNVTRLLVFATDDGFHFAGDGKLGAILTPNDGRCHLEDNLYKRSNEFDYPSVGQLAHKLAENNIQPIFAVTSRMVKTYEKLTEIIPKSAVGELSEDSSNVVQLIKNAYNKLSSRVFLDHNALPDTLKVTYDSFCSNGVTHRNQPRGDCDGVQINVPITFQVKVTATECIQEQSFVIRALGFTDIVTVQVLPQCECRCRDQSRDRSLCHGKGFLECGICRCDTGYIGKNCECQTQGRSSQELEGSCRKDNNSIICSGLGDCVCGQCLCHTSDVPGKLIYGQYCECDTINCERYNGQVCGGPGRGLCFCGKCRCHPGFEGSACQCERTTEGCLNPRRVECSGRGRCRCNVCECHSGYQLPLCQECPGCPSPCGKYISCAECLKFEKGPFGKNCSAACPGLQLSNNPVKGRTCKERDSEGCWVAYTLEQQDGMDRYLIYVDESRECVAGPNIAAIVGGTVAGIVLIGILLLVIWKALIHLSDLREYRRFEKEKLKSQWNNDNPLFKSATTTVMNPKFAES

| Structure (SMILES) | IC50 |
| --- | --- |
| CN(Cc1cccc(-c2ccc(Br)cc2)c1)[C@H]1Cc2c(O)n(-c3cc(Cl)cc(Cl)c3)c(=O)n2C1 [(6S,7aS)-6-[(4''-Bromo-biphenyl-3-ylmethyl)-methyl-amino]-2-(3,5-dichloro-phenyl)-tetrahydro-pyrrolo[1,2-c]imidazole-1,3-dione] | 175 nM |
| N#Cc1ccc(-c2cccc(CN[C@H]3Cc4c(O)n(-c5cc(Cl)cc(Cl)c5)c(=O)n4C3)c2)cc1 [3''-{[(6S,7aS)-2-(3,5-Dichloro-phenyl)-1,3-dioxo-hexahydro-pyrrolo[1,2-c]imidazol-6-ylamino]-methyl}-biphenyl-4-carbonitrile] | 175 nM |
